pEC50, pIC50: −log10 of the molar value.
How the values were obtained:
[1] = biological target: Protein kinase C alpha type (Homo sapiens, UniProt P17252); test: In vitro activity evaluated against protein kinase C (using histone II-As as a substrate)
MKN-45 [2] = test: Cytotoxicity against human stomach cancer cells (MKN-45) after intravenous administration (5 times/week for 2 weeks after tumor grew to 0.2 cme3 or larger); type: functional, cell-based; conditions: MKN-45, 336 h
[3] = Lethal dose after intravenous administration (5 times/week for 2 weeks after tumor grew to 0.2 cme3 or larger) in mice; type: toxicity; conditions: mouse, in vivo, 336 h
DNA topoisomerase II = DNA topoisomerase II (Homo sapiens, UniProt P11388+Q02880); test: In vitro activity against topoisomerase-2 mediated cleavage of supercoiled pBR322 plasmid DNA; type: functional
[4] = biological target: Epidermal growth factor receptor (Homo sapiens, UniProt P00533); test: In vitro activity against Epidermal growth factor receptor (using poly(Glu4Tyr1) as a substrate)
[5] = Ratio of LD10 to that of GID75 was determined; expressed as safety margin; type: functional
P388 [6] = test: Effect on the formation of protein-DNA complex in P388 cells K+/SDS method; type: functional, Mus musculus
MKN-45 [7] = test: In vitro cytotoxicity (CTX) against human stomach cancer cells (MKN-45) using sulforhodamine B dye-staining method; type: functional, cell-based
P388 [8] = test: In vitro cytotoxicity (CTX) against murine leukemia cells (P388) using colorimetric tetrazolium-formazan method; type: functional, cell-based; conditions: Mus musculus
DNA topoisomerase 1 = biological target: T1, DNA topoisomerase 1 (Homo sapiens, UniProt P11387); test: In vitro activity against topoisomerase-1 mediated cleavage of supercoiled pBR322 plasmid DNA; type: functional
T1 sequence (P11387 whole entry): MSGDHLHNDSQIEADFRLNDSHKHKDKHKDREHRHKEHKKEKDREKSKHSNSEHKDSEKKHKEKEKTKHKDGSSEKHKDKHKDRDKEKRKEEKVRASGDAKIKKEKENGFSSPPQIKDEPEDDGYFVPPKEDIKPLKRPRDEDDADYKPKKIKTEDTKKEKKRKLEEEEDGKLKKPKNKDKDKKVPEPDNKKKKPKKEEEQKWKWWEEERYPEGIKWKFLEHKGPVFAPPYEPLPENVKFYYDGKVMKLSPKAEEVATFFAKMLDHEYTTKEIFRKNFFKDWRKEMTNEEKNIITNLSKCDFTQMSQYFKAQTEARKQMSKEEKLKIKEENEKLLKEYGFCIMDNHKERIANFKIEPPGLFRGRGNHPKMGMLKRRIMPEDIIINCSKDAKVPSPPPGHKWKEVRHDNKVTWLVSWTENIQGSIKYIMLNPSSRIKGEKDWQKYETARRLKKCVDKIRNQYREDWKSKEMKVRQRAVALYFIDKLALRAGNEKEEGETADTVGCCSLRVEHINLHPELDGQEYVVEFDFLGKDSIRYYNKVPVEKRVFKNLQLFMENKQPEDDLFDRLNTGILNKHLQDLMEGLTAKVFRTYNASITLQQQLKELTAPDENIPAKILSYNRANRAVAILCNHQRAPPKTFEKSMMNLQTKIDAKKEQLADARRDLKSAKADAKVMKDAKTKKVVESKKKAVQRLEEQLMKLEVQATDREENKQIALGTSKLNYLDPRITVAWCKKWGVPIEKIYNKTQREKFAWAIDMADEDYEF

Mus musculus = test: Cytotoxicity against human stomach cancer cells (MKN-45) implanted subcutaneously into a side flank of nude mice; type: functional, Cancer cell lines

Sequence of Epidermal growth factor receptor (P00533 whole entry): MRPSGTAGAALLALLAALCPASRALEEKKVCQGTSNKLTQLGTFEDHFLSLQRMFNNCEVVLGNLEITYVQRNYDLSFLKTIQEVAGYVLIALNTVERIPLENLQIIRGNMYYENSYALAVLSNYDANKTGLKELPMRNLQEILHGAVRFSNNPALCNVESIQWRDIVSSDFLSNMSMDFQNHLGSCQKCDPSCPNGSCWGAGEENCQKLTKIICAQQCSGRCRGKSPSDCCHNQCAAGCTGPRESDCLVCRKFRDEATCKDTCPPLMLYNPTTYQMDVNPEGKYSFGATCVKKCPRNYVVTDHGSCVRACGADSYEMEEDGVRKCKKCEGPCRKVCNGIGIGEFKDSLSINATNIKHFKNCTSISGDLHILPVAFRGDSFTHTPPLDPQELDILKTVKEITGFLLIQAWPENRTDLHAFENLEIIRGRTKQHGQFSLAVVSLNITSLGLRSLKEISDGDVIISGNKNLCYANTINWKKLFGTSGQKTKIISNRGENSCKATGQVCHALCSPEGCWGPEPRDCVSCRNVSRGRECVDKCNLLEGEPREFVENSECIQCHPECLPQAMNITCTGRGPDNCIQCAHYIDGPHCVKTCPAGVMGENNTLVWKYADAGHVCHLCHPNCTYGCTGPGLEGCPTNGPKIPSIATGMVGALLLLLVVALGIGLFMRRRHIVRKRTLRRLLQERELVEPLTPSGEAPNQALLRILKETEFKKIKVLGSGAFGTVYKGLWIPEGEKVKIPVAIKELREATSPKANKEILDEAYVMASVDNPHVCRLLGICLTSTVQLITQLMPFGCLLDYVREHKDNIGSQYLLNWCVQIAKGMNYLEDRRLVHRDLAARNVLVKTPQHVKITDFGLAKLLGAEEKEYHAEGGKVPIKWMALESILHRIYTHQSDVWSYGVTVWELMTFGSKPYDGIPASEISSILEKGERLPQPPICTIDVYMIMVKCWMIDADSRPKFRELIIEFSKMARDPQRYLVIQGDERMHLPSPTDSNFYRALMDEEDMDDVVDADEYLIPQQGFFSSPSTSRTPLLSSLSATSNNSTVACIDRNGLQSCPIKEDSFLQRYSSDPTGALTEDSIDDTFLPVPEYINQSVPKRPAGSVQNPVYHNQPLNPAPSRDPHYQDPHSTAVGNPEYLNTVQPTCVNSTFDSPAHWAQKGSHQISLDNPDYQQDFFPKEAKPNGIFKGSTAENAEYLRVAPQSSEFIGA

Work on `O=C1c2c(c3c4cccc(O)c4n(C4OC(CO)C(O)C(O)C4O)c3c3[nH]c4c(O)cccc4c23)C(=O)N1NCCO` (stereo unspecified) yielded a pIC50 [1] of under 3.70, a pIC50 (MKN-45 [2]) of 8.52 and an LD10 [3] of 560 mg/me2. It also gave an EC50 (DNA topoisomerase II) of over 50000 nM, a pIC50 [4] of under 3.70 and an Activity [5] of 2.1 Ratio. It also gave an EC200 (P388 [6]) of 0.3 µM, a pIC50 (MKN-45 [7]) of 8.52 and a pIC50 (P388 [8]) of 8.22. For the same molecule, the pEC50 (DNA topoisomerase 1) was 6.37 and the GID75 (Mus musculus) was 270 mg/me2.

Reference: ChEMBL document CHEMBL1131686, “Synthesis and biological activities of topoisomerase I inhibitors, 6-N-amino analogues of NB-506” (Bioorg Med Chem Lett, 1999)
